Test results published in patent US9586952B2, “Polycyclic estrogen receptor modulators and uses thereof” (SERAGON PHARMACEUTICALS, INC., priority 2013, dated 2017).

Experiments:
MCF-7 cells = assay: MCF7 Viability Assay (Breast Cancer Cell Viability Assay); type: cell-based; details: 5 days' compound exposure, CellTiter-Glo; for IC50: Homo sapiens, MCF7, 120 h
Protocol: MCF-7 cells were adjusted to a concentration of 20,000 cells per mL in RPMI containing 10% FBS and 20 mM HEPES. 16 microliters of the cell suspension (320 cells) was added to each well of a 384 well plate, and the cells were incubated overnight to allow the cells to adhere. The following day an eleven point, serial semilog dilution of each compound was added to the cells in 16 μL at a final concentration ranging from 0.3-0.000003 μM. After 5 days' compound exposure, 16 μL of CellTiter-GLo (Promega, Madison Wis.) was added to the cells, and the relative luminescence units (RLUs) of each well were determined. CellTiter-Glo added to 32 μL of medium without cells was used to obtain a background value. The Percent viability of each sample was determined as follows: (RLU sample-RLU background/RLU untreated cells-RLU background)×100=% viability.

ER-α = target: T1, ER-α (Homo sapiens, UniProt P03372); assay: Breast Cancer Cell ER-α In Cell Western Assay (SP1); type: cell-based; details: MCF-7 cells, 4 or 24 hr post compound addition, SP1 antibody; for Emax: MCF7, read-out: ER-α In Cell Western Assay (SP1) Max Response; for DC50: read-out: ER-α In Cell Western Assay (SP1) IC50
T1 construct: endogenous in cells; host or cells: MCF-7
T1 sequence (P03372 1-595): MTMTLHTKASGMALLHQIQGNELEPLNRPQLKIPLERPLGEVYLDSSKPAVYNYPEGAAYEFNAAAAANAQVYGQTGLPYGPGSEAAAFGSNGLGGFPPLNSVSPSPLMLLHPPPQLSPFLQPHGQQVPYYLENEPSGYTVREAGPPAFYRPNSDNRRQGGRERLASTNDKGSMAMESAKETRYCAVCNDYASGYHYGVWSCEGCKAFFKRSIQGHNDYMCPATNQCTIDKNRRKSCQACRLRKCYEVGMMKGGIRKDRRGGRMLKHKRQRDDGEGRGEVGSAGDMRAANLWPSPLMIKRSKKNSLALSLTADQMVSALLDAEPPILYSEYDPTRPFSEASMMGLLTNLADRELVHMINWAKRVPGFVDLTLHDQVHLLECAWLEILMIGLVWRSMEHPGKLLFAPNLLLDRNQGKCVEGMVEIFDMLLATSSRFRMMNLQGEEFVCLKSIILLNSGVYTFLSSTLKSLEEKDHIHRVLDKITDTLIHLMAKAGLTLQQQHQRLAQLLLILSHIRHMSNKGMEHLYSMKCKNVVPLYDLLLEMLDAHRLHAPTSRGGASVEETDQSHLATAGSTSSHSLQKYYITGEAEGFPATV
Protocol: MCF-7 cells were adjusted to a concentration of 200,000 cells per mL in RPMI containing 10% charcoal-stripped FBS and 20 mM HEPES. 16 microliters of the cell suspension (3200 cells) was added to each well of a poly-D-lysine 384 well plate, and the cells were incubated overnight to allow the cells to adhere. The following day an eleven point, serial semilog dilution of each compound was added to the cells in 16 μL at a final concentration ranging from 0.3-0.000003 μM. At 4 or 24 hr post compound addition, the cells were fixed (10% formalin in PBS) for 20 minutes. Cells were permeablized in PBS 0.1% Triton and blocked with LICOR blocking buffer (50 μl/well, 90′). The wells were then incubated overnight at 4° C. with SP1 rabbit monoclonal Ab (Thermo Scientific) diluted 1:1000 in LICOR blocking buffer/0.1% Tween-20. Wells which were treated with blocking buffer with Tween but no antibody were used as a background control. Wells were washed with 0.1% Tween-20/PBS and then incubated in goat anti-rabbit IRDye™ 800 CW (LICOR Inc.; 1:10000) and DRAQ5 DNA dye (1:2000 for 2 mM stock) diluted in LICOR blocking buffer containing 0.1% Tween-20 and 0.01% SDS for 60 minutes. Cells were washed (50 μl/well, 5′ each) in 0.1% Tween-20/PBS. Plates were scanned on a LICOR Odyssey infrared imaging system. Integrated intensities in the 800 nm channel and 700 nm channel were measured to determine levels of ER and DNA respectively. Percent ER levels were determined as follows: (Integrated intensity 800 nm sample/integrated intensity 700 nm sample)/(Integrated intensity 800 nm untreated cells/integrated intensity 700 nm untreated cells)×100=% ER levels.

SMILES | IC50 (MCF-7 cells) [nM] | Emax (ER-α) [%] | DC50 (ER-α) [nM] | MCF7 Viability Assay Max Response (MCF-7 cells)
O=C(O)/C=C/c1ccc(/C(=C(\c2ccc(F)cc2Cl)C2CCC2)c2ccc(-c3cn[nH]c3)cc2)cc1 [Example 37, (E)-3-(4-((E)-1-(4-(1H-Pyrazol-4-yl)phenyl)-2-(2-chloro-4-fluorophenyl)-2-cyclobutylvinyl)phenyl)acrylic acid] | ≤ 100 | ≥ 40 | ≤ 100 | ++ (++ = a single % value ≧ 40%)
Cc1cccnc1/C(=C(\c1ccc(/C=C/C(=O)O)cc1)c1ccc(-c2cn[nH]c2)cc1)C1CCC1 [Example 40, (E)-3-(4-((E)-1-(4-(1H-Pyrazol-4-yl)phenyl)-2-cyclobutyl-2-(3-methylpyridin-2-yl)vinyl)phenyl)acrylic acid] | > 100 | ≥ 40 | ≤ 100 | ++ (++ = a single % value ≧ 40%)
O=C(O)/C=C/c1ccc(/C(=C(\c2ncccc2Cl)C2CCC2)c2ccc(-c3cn[nH]c3)cc2)cc1 [Example 42, (E)-3-(4-((E)-1-(4-(1H-Pyrazol-4-yl)phenyl)-2-(3-chloropyridin-2-yl)-2-cyclobutylvinyl)phenyl)acrylic acid] | ≤ 100 | ≥ 40 | ≤ 100 | ++ (++ = a single % value ≧ 40%)
O=C(O)/C=C/c1ccc(/C(=C(\c2ncccc2Cl)C2CCC2)c2ccc(N3CCOCC3)cc2)cc1 [Example 43, (E)-3-(4-((E)-2-(3-Chloropyridin-2-yl)-2-cyclobutyl-1-(4-morpholinophenyl)vinyl)phenyl)acrylic acid] | ≤ 100 | ≥ 40 | ≤ 100 | ++ (++ = a single % value ≧ 40%)
N#Cc1cc(Cl)ccc1/C(=C(\c1ccc(/C=C/C(=O)O)cc1)c1ccc(-c2cn[nH]c2)cc1)C1CCC1 [Example 44, (E)-3-(4-((E)-1-(4-(1H-Pyrazol-4-yl)phenyl)-2-(4-chloro-2-cyanophenyl)-2-cyclobutylvinyl)phenyl)acrylic acid] | ≤ 100 | ≥ 40 | ≤ 100 | ++ (++ = a single % value ≧ 40%)
COc1ccc(/C(=C(\c2ccc(/C=C/C(=O)O)cc2)c2ccc(N3CCOCC3)cc2)C2CCC2)c(C)c1 [Example 47, (E)-3-(4-((E)-2-Cyclobutyl-2-(4-methoxy-2-methylphenyl)-1-(4-morpholinophenyl)vinyl)phenyl)acrylic acid] | ≤ 100 | ≥ 40 | ≤ 100 | ++ (++ = a single % value ≧ 40%)
O=C(O)/C=C/c1ccc(/C(=C(\c2ccc(C(F)(F)F)cc2Cl)C2CCC2)c2ccc(N3CCOCC3)cc2)cc1 [Example 48, (E)-3-(4-((E)-2-(2-Chloro-4-(trifluoromethyl)phenyl)-2-cyclobutyl-1-(4-morpholinophenyl)vinyl)phenyl)acrylic acid] | ≤ 100 | ≥ 40 | ≤ 100 | ++ (++ = a single % value ≧ 40%)
O=C(O)/C=C/c1ccc(/C(=C(\c2ccc(F)cc2Cl)C2CCC2)c2ccc(-c3nn[nH]n3)cc2)cc1 [Example 49, (E)-3-(4-((E)-1-(4-(2H-Tetrazol-5-yl)phenyl)-2-(2-chloro-4-fluorophenyl)-2-cyclobutylvinyl)phenyl)acrylic acid] | > 100 | < 40 | > 100 | + (+ = a single % value < 40%)
COc1ccc(/C(=C(\c2ccc(/C=C/C(=O)O)cc2)c2ccc(-c3nn[nH]n3)cc2)C2CCC2)c(Cl)c1 [Example 50, (E)-3-(4-((E)-1-(4-(2H-Tetrazol-5-yl)phenyl)-2-(2-chloro-4-methoxyphenyl)-2-cyclobutylvinyl)phenyl)acrylic acid] | > 100 | ≥ 40 | > 100 | ++ (++ = a single % value ≧ 40%)
O=C(O)/C=C/c1ccc(/C(=C(\c2ccc(OC(F)(F)F)cc2Cl)C2CCC2)c2ccc(-c3cn[nH]c3)cc2)cc1 [Example 52, (E)-3-(4-((E)-1-(4-(1H-Pyrazol-4-yl)phenyl)-2-(2-chloro-4-(trifluoromethoxy)phenyl)-2-cyclobutylvinyl)phenyl)acrylic acid] | ≤ 100 | ≥ 40 | ≤ 100 | ++ (++ = a single % value ≧ 40%)
COc1ccc(/C(=C(\c2ccc(/C=C/C(=O)O)cc2)c2ccc(-c3cncs3)cc2)C2CCC2)c(Cl)c1 [Example 53, (E)-3-(4-((E)-2-(2-Chloro-4-methoxyphenyl)-2-cyclobutyl-1-(4-(thiazol-5-yl)phenyl)vinyl)phenyl)acrylic acid] | ≤ 100 | ≥ 40 | ≤ 100 | ++ (++ = a single % value ≧ 40%)

More lines, main results first:

IC50 (MCF-7 cells) [nM] | Emax (ER-α) [%] | DC50 (ER-α) [nM] | SMILES | MCF7 Viability Assay Max Response (MCF-7 cells)
≤ 100 | ≥ 40 | ≤ 100 | Cc1cscc1/C(=C(\c1ccc(/C=C/C(=O)O)cc1)c1ccc(-c2cn[nH]c2)cc1)C1CCC1 [Example 38, (E)-3-(4-((E)-1-(4-(1H-Pyrazol-4-yl)phenyl)-2-cyclobutyl-2-(4-methylthiophen-3-yl)vinyl)phenyl)acrylic acid] | ++ (++ = a single % value ≧ 40%)
≤ 100 | ≥ 40 | ≤ 100 | COc1cc(C)c(/C(=C(\c2ccc(/C=C/C(=O)O)cc2)c2ccc(N3CCOCC3)cc2)C2CCC2)cn1 [Example 39, (E)-3-(4-((E)-2-Cyclobutyl-2-(6-methoxy-4-methylpyridin-3-yl)-1-(4-morpholinophenyl)vinyl)phenyl)acrylic acid] | ++ (++ = a single % value ≧ 40%)
> 100 | ≥ 40 | ≤ 100 | O=C(O)/C=C/c1ccc(/C(=C(\c2ncccc2F)C2CCC2)c2ccc(-c3cn[nH]c3)cc2)cc1 [Example 41, (E)-3-(4-((E)-1-(4-(1H-Pyrazol-4-yl)phenyl)-2-cyclobutyl-2-(3-fluoropyridin-2-yl)vinyl)phenyl)acrylic acid] | ++ (++ = a single % value ≧ 40%)
≤ 100 | ≥ 40 | ≤ 100 | N#Cc1ccc(/C(=C(\c2ccc(/C=C/C(=O)O)cc2)c2ccc(N3CCOCC3)cc2)C2CCC2)c(Cl)c1 [Example 45, (E)-3-(4-((E)-2-(2-Chloro-4-cyanophenyl)-2-cyclobutyl-1-(4-morpholinophenyl)vinyl)phenyl)acrylic acid] | ++ (++ = a single % value ≧ 40%)
≤ 100 | ≥ 40 | ≤ 100 | N#Cc1cc(Cl)ccc1/C(=C(\c1ccc(/C=C/C(=O)O)cc1)c1ccc(N2CCOCC2)cc1)C1CCC1 [Example 46, (E)-3-(4-((E)-2-(4-Chloro-2-cyanophenyl)-2-cyclobutyl-1-(4-morpholinophenyl)vinyl)phenyl)acrylic acid] | ++ (++ = a single % value ≧ 40%)
≤ 100 | ≥ 40 | ≤ 100 | COc1ccc(/C(=C(\c2ccc(/C=C/C(=O)O)cc2)c2ccc(-c3cn[nH]c3)cc2)C2CCC2)c(Cl)c1 [Example 51, (E)-3-(4-((E)-1-(4-(1H-Pyrazol-4-yl)phenyl)-2-(2-chloro-4-methoxyphenyl)-2-cyclobutylvinyl)phenyl)acrylic acid] | ++ (++ = a single % value ≧ 40%)
